# Laboratory results as given in patent US20220235043A1, “SUBSTITUTED SULFONAMIDE PYRROLOPYRIDINES AS JAK INHIBITORS” (ACLARIS THERAPEUTICS, INC., priority 2019, published 2022).
# Tests used:
# Tyk-2 = molecular target: T1, Tyk-2 (Homo sapiens, UniProt P29597); test: Tyk-2 enzyme activity assay (Thermo Fisher Selectscreen, Z-lyte); format: biochemical; settings: read-out: Tyk-2 Inhibition IC50
# T1 construct: purchased Thermo Fisher Scientific (SelectScreen service)
# Description: (§1) The inhibitory potency of candidate compounds of JAK1, JAK2, and Tyk-2 was done at Thermo Fisher Scientific in their Selectscreen using a Z-lyte assay. Following are the assay details for each enzyme.
# TYK2: The 2×TYK2/Tyr 03 mixture is prepared in 50 mM HEPES pH 6.5, 0.01% BRIJ-35, 10 mM MgCl2, 1 mM EGTA, 0.02% NaN3. The final 10 μL Kinase Reaction consists of 3.75-15 ng TYK2 and 2 μM Tyr 03 in 50 mM HEPES pH 7.0, 0.01% BRIJ-35, 10 mM MgCl2, 1 mM EGTA, 0.01% NaN3. After the one hour KinaseReaction incubation, 5 μL of a 1:4096 dilution of Development Reagent A is added.
# (§2) Data reduction for JAK1, JAK2 and TYK2 is done the same, independent of the enzyme run. In summary, background signal is defined in the absence of enzyme and uninhibited signal is defined in the presence of vehicle (2% DMSO) alone. Compounds were evaluated in an 11 point dose-response ranging from […] to 0.34 nM. IC50 values of compounds are determined using a 4 parameter logistical fit of emission ratio as a function of the concentration of compound.
# JAK3 (a.a. 781-1124) = molecular target: T2, JAK3 (a.a. 781-1124) (Homo sapiens, UniProt P52333); test: JAK3 enzyme activity assay (SRCtide phosphorylation, Caliper); format: biochemical; settings: 1 uM ATP; read-out: JAK3 Inhibition IC50
# T2 construct: JAK3 (a.a. 781-1124, ThermoFisher); purchased ThermoFisher
# T2 sequence (P52333 781-1124): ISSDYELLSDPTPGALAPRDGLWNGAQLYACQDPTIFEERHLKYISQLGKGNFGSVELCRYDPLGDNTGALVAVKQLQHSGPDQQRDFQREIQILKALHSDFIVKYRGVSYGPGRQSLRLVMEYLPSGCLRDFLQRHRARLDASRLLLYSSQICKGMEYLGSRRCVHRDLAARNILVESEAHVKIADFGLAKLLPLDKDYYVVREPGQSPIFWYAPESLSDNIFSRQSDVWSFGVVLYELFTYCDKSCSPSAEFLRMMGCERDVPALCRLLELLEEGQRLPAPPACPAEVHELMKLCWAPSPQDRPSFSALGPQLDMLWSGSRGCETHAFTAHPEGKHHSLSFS
# Description: The activity of JAK3 (a.a. 781-1124, ThermoFisher) was quantified by measuring the phosphorylation of SRCtide (FAM-GEEPLYWSFPAKKK-NH2). Kinase reactions were run in a 384-well Greiner plate with 2% final DMSO concentration under the buffer conditions of 20 mM HEPES, pH 7.5, 10 mM MgCl2, 0.01% BSA, and 0.0005% Tween-20. The kinase reaction components were 2.5 nM JAK3, 1 μM SRCtide peptide and 1 uM ATP. Examples were tested in dose-response starting at […] (11 concentrations, 3-fold serial dilution, duplicate reactions). The reactions were incubated at room temperature for 40 minutes, then stopped by adding a 1:1 volume of 30 mM EDTA in 20 mM HEPES, pH 7.5 (15 mM EDTA final). After the reaction was stopped, the phosphorylated and unphosphorylated peptides were separated and quantified using a Caliper LC3000/EZ-Reader system and HTS Well Analyzer Software (Caliper, A PerkinElmer Company, Hopkinton, Mass.). GraFit (Erithacus Software Ltd., Horley, U.K.) was used to calculate inhibitor potency by fitting dose-response data to the 4-parameter logistical IC50 equation.
# [1] = tested on: IL-2 stimulated STAT5 phosphorylation on Tyr694 (JAK1/3); test: JAK1/3 cellular target modulation: IL-2 stimulated phospho-STAT5 in human PBMC; format: cell-based; settings: IL-2 25 ng/ml, read-out: IL2-STAT5 IC50
# From the text: (§3) Target modulation was based upon the ability of a compound to inhibit JAK isoform specific phosphorylation of selected substrates. IL-2 stimulated STAT5 phosphorylation on Tyr694 was used to assess JAK1/3 compound selectivity. GM-CSF stimulated STAT5 phosphorylation on Tyr694 was used to assess JAK2 compound selectivity. IFNγ stimulated STAT1 phosphorylation on Tyr701 was used to assess JAK1/2 compound selectivity. IL-12 stimulated STAT4 phosphorylation on Tyr693 was used to assess JAK2/TYK2 compound selectivity. For all four assays, human PBMC from frozen stocks were thawed, pelleted, resuspended in complete media (90% RPMI, 10% heat inactivated FBS, 10 mM HEPES, 47 μM 2-ME, pen/strep) and placed in wells of a 96 well V-bottom plate at 200,000 per well in 120 μl complete media. Compounds were added as 15 μl per well of 10× working stock solutions in complete media with 1% DMSO (or medium with 1% DMSO for controls) and placed on a plate shaker in a 37° C. incubator with 5% CO2 for 1 hour with gentle shaking (setting of 3). Stimulation used the addition of soluble cytokines. For the JAK1/3 phospho-STAT5 assay, 15 μl of 10× working stock recombinant human IL-2 was added to a final concentration of 25 ng/ml. For the JAK2 phospho-STAT5 assay, 15 μl of 10× working stock recombinant human GM-CSF was added to a final concentration of 5 ng/ml. For the JAK1/2 phospho-STAT1 assay, 15 μl of 10× working stock of recombinant human IFNγ was added to a final concentration of 10 ng/ml. For the JAK2/TYK2 phospho-STAT4 assay, 15 μl of 10× working stock of recombinant human IL-12 was added to a final concentration of 1.7 ng/ml. Plates were then placed back on the plate shaker in the incubator for an additional 5, 5, 10, and 25 minutes respectively upon which the plates were removed from the incubator, sealed with a plate sealer and the cells pelleted at 400×g for 5 minutes. After pelleting, the media was removed by aspiration and the cells were lysed in assay specific cell lysis buffer. The levels of phospho-STAT5 were determined using a Phospho (Tyr694)STAT5a,b Whole Cell Lysate kit from Meso Scale Discovery. Levels of phospho-STAT1 were determined using a CST-PathScan Phospho-STAT1 (Tyr701) Sandwich ELISA kit. Levels of phospho-STAT4 were determined using a Phospho-STAT4 (Tyr693) Whole Cell Lysate kit from Meso Scale Discovery.
# [2] = tested on: IFNγ stimulated STAT1 phosphorylation on Tyr701 (JAK1/2); test: JAK1/2 cellular target modulation: IFNγ stimulated phospho-STAT1 in human PBMC; format: cell-based; settings: IFNγ 10 ng/ml, read-out: Infγ-STAT1 IC50
# From the text: as §3
# [3] = tested on: IL-12 stimulated STAT4 phosphorylation on Tyr693 (JAK2/TYK2); test: JAK2/TYK2 cellular target modulation: IL-12 stimulated phospho-STAT4 in human PBMC; format: cell-based; settings: IL-12 1.7 ng/ml, read-out: IL12-STAT4 IC50
# From the text: as §3
# JAK2 = molecular target: T3, JAK2 (Homo sapiens, UniProt O60674); test: JAK2 enzyme activity assay (Thermo Fisher Selectscreen, Z-lyte); format: biochemical; settings: read-out: JAK2 Inhibition IC50
# T3 construct: purchased Thermo Fisher Scientific (SelectScreen service)
# T3 sequence (O60674 whole entry): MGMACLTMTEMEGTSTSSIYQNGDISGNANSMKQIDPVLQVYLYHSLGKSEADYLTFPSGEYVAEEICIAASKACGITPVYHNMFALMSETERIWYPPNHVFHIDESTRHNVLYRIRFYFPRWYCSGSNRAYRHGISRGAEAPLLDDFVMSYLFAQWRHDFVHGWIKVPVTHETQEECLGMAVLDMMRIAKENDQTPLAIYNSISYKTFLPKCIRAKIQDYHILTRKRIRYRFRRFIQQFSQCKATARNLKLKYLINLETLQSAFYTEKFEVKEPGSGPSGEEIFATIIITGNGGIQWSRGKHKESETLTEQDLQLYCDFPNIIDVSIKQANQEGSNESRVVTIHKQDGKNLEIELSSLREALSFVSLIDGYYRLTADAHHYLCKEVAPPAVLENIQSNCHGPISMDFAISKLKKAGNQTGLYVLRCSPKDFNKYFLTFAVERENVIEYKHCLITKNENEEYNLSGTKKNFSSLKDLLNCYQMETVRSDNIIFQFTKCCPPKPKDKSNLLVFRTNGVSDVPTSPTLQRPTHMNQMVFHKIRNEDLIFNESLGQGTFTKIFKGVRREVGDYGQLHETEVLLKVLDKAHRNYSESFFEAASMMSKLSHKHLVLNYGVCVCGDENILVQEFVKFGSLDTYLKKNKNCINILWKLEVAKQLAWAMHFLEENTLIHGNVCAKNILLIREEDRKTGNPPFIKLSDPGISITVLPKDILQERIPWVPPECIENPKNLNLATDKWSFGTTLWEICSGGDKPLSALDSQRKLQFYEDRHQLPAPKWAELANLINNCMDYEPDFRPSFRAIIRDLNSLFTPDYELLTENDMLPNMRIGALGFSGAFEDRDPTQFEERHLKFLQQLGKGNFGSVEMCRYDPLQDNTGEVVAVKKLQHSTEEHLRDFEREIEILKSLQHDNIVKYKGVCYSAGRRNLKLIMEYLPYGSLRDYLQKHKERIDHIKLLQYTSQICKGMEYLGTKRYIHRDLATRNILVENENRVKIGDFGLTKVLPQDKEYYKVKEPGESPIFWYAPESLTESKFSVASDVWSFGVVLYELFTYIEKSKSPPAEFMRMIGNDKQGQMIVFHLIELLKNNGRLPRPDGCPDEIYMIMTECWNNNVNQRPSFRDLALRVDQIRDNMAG
# Description: as §1
# JAK2: The 2×JAK2/Tyr 06 mixture is prepared in 50 mM HEPES pH 7.5, 0.01% BRIJ-35, 10 mM MgCl2, 1 mM EGTA. The final 10 μL Kinase Reaction consists of 0.12-0.5 ng JAK2 and 2 μM Tyr 06 in 50 mM HEPES pH 7.5, 0.01% BRIJ-35, 10 mM MgCl2, 1 mM EGTA. After the one hour Kinase Reaction incubation, 5 μL of a 1:128 dilution of Development Reagent A is added.
# as §2
# JAK1 = molecular target: T4, JAK1 (Homo sapiens, UniProt P23458); test: JAK1 enzyme activity assay (Thermo Fisher Selectscreen, Z-lyte); format: biochemical; settings: read-out: JAK1 Inhibition IC50
# T4 construct: purchased Thermo Fisher Scientific (SelectScreen service)
# T4 sequence (P23458 whole entry): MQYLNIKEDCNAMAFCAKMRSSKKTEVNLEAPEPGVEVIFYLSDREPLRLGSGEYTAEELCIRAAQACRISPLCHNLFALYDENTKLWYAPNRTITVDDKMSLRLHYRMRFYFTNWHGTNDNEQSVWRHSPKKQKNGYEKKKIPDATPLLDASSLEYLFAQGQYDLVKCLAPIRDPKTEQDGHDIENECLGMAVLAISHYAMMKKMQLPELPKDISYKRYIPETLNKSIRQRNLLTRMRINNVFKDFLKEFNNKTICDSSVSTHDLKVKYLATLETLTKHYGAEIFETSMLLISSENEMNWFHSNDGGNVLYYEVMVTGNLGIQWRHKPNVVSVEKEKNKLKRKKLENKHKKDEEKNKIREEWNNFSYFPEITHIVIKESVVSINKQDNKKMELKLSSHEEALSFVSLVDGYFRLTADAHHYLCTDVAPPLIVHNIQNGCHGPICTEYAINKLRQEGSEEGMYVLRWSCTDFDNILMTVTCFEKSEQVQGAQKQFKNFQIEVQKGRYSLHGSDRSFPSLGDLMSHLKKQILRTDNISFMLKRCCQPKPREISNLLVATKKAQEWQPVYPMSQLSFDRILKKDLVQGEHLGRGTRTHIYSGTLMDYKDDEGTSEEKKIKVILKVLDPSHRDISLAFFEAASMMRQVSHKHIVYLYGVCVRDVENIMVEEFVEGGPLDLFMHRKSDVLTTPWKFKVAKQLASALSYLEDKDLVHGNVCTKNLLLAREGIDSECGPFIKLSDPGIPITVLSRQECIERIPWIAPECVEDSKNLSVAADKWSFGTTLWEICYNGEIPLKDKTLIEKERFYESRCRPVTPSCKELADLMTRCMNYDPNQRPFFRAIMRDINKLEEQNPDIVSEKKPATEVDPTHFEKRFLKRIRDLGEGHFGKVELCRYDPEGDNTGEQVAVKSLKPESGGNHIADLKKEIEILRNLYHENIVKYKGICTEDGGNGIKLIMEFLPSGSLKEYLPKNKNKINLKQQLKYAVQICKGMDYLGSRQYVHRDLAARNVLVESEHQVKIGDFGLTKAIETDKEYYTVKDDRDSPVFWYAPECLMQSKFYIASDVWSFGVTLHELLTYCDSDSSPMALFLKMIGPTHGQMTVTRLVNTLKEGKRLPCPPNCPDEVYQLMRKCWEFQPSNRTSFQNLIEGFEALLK
# Description: as §1
# JAK1: The 2×JAK-enzyme/Tyr 06 mixture is prepared in 50 mM HEPES pH 6.5, 0.01% BRIJ-35, 10 mM MgCl2, 1 mM EGTA, 0.02% NaN3. The final 10 μL of the Kinase Reaction consists of 21.2-91.5 ng JAK1 and 2 μM Tyr 06 in 50 mM HEPES pH 7.0, 0.01% BRIJ-35, 10 mM MgCl2, 1 mM EGTA, 0.01% NaN3. After the one hour Kinase Reaction incubation, 5 μL of a 1:128 dilution of Development Reagent is added.
# as §2
# T1 sequence (P29597 whole entry): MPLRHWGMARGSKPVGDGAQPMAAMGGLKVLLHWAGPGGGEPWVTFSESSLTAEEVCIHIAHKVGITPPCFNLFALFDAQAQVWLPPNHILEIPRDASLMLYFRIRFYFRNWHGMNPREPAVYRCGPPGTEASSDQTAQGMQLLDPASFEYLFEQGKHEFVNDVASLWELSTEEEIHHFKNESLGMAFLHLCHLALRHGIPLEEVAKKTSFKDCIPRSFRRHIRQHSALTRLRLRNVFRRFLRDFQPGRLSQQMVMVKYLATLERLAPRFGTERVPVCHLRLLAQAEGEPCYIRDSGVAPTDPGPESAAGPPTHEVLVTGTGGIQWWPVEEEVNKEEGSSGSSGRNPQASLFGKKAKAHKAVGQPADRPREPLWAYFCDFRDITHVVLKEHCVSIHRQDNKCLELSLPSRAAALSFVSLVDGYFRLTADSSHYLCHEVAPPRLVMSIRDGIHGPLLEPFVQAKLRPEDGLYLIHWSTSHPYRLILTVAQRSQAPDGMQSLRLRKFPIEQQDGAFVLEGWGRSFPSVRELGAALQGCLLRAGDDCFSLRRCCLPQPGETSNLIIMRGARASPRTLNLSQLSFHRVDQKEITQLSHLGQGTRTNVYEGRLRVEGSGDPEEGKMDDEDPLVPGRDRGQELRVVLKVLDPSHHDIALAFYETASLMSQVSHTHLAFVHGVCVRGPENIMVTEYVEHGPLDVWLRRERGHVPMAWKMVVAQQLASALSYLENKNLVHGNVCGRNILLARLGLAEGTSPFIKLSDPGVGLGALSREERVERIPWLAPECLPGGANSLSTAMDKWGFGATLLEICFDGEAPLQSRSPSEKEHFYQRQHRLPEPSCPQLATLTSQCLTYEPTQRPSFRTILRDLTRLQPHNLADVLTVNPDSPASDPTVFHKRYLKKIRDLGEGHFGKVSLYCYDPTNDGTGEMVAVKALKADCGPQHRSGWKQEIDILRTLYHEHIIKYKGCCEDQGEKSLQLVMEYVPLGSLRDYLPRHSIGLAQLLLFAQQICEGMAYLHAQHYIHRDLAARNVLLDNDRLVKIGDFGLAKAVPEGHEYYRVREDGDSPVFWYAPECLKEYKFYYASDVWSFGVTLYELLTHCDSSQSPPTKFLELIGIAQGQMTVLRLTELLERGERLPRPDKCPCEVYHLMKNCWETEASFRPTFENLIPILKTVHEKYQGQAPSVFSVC
SMILES,IC50 (Tyk-2),IC50 (JAK3 (a.a. 781-1124)),IC50 [1],IC50 [2],IC50 [3],IC50 (JAK2),IC50 (JAK1)
"CCCS(=O)(=O)N[C@H]1C[C@@H](Nc2c(-c3nc(C(=O)NC)cs3)cnc3[nH]ccc23)C1 [Example 72, N-methyl-2-(4-(((1s,3s)-3-(propylsulfonamido)cyclobutyl)amino)-1H-pyrrolo[2,3-b]pyridin-5-yl)thiazole-4-carboxamide]",100 to 1000 nM,10 to 100 nM,100 to 1000 nM,> 1000 nM,> 1000 nM,10 to 100 nM,10 to 100 nM
"CCOC(=O)c1cnc2[nH]ccc2c1N[C@H]1C[C@@H](NS(=O)(=O)c2cc(C#N)ccn2)C1 [Example 5, ethyl 4-(((1s,3s)-3-((4-cyanopyridine)-2-sulfonamido)cyclobutyl)amino)-1H-pyrrolo[2,3-b]pyridine-5-carboxylate]",10 to 100 nM,10 to 100 nM,100 to 1000 nM,100 to 1000 nM,> 1000 nM,10 to 100 nM,≤ 10 nM
"CCCS(=O)(=O)N[C@H]1C[C@@H](Nc2c(-c3nccs3)cnc3[nH]ccc23)C1 [Example 70, N-((1s,3s)-3-((5-(thiazol-2-yl)-1H-pyrrolo[2,3-b]pyridin-4-yl)amino)cyclobutyl)propane-1-sulfonamide]",10 to 100 nM,10 to 100 nM,≤ 100 nM,100 to 1000 nM,> 1000 nM,10 to 100 nM,≤ 10 nM
"CCCS(=O)(=O)N[C@H]1C[C@@H](Nc2c(-c3nnc(C)s3)cnc3[nH]ccc23)C1 [Example 76, N-((1s,3s)-3-((5-(5-methyl-1,3,4-thiadiazol-2-yl)-1H-pyrrolo[2,3-b]pyridin-4-yl)amino)cyclobutyl)propane-1-sulfonamide]",10 to 100 nM,10 to 100 nM,100 to 1000 nM,100 to 1000 nM,> 1000 nM,10 to 100 nM,10 to 100 nM
"CNC(=O)c1ccnc(-c2cnc3[nH]ccc3c2N[C@H]2C[C@@H](NS(=O)(=O)c3cccc(C#N)c3)C2)c1 [Example 66, 2-(4-(((1s,3s)-3-((3-cyanophenyl)sulfonamido)cyclobutyl)amino)-1H-pyrrolo[2,3-b]pyridin-5-yl)-N-methylisonicotinamide]",10 to 100 nM,100 to 1000 nM,100 to 1000 nM,> 1000 nM,> 1000 nM,10 to 100 nM,≤ 10 nM
"N#Cc1ccnc(S(=O)(=O)N[C@H]2C[C@H](Nc3c(-c4ccncn4)cnc4[nH]ccc34)C2)c1 [Example 63, 4-cyano-N-((1r,3r)-3-((5-(pyrimidin-4-yl)-1H-pyrrolo[2,3-b]pyridin-4-yl)amino)cyclobutyl)pyridine-2-sulfonamide]",10 to 100 nM,10 to 100 nM,100 to 1000 nM,100 to 1000 nM,> 1000 nM,≤ 10 nM,≤ 10 nM
"Cc1nnc(-c2cnc3[nH]ccc3c2N[C@H]2C[C@@H](NS(=O)(=O)CCCC#N)C2)s1 [Example 77, 3-cyano-N-((1s,3s)-3-((5-(5-methyl-1,3,4-thiadiazol-2-yl)-1H-pyrrolo[2,3-b]pyridin-4-yl)amino)cyclobutyl)propane-1-sulfonamide]",10 to 100 nM,10 to 100 nM,100 to 1000 nM,100 to 1000 nM,> 1000 nM,≤ 10 nM,≤ 10 nM
